Results taken from patent US20220105183A1, “MICRO-NANO STRUCTURE FORMED BY SELF-ASSEMBLING ORGANIC SMALL MOLECULE COMPOUND AND USE THEREOF” (Qingdao University of Science and Technology, priority 2018, published 2022).

Tests used:
Format in all cases: physicochemical
[1] = DLS particle size / self-assembly of the compounds in aqueous solution; conditions: 20 μM working solution in deionized water; for DLS particle size peak (nm) / DLS particle size range (nm): micro-nano structure
Experimental: The term “particle size” refers to the size of particles, also known as “granularity” or “diameter”. When a certain physical characteristic or physical behavior of the measured particle is closest to a homogeneous sphere (or combination) of a certain diameter, the diameter (or combination) of the sphere is taken as the equivalent particle size of the measured particle. The particle size parameter of the micro-nano structure of the present invention is measured by the principle of dynamic light scattering (DLS), specifically measured by a laser particle size analyzer.
(§1) Taking the self-assembled micro-nano structure of Compound II-1 as an example, II-1 was dissolved in DMSO (also can be an organic solvent such as ethanol) to prepare a 2 mM storage solution, and a small amount of storage solution was added to deionized water to prepare 20 μM working solution. Took 10 μL and dropped it on copper mesh, observed and analyzed under transmission electron microscope (TEM), cryo-transmission electron microscope. Took 10 μL and dropped it on mica plate, observed and analyzed under atomic force microscope (AFM). In FIGS. 5, A, B, C and D were TEM photographs, cryo-transmission electron microscope photographs, AFM photographs, and AFM analysis data, respectively. According to the photographs and data, II-1 was self-assembled into nanosheets with a diameter of 40-70 nm and a thickness of 3.7-3.9 nm. […]
Among them, the particle size test results of II-12 to II-15 in aqueous solution are shown in FIG. 6, and the results of dynamic light scattering DLS of II-16 to 1-18 are shown in FIG. 7).

[2] = Photothermal stability, repeated 808 nm irradiation and cooling; conditions: for reduction of absorbance after 5 times of irradiation: ultraviolet spectra before and after
Experimental: We selected sample No. 3 to test the photothermal stability experiment. As shown in the right figure of FIG. 8, sample No. 3 was irradiated with 808 nm laser for 9 minutes and then the temperature increased from room temperature 30° C. to 62° C., and then allowed to naturally cool down to room temperature, and irradiated with 808 nm laser again for 9 minutes, then naturally cooled down, and repeated for 5 times. […] After 9 minutes of irradiation, the temperature was raised by […], and then returned to room temperature.

[3] = TEM, cryo-TEM and AFM of the self-assembled micro-nano structure; conditions: micro-nano structure in aqueous solution, AFM and TEM
Experimental: as §1

[4] = Photothermal effect in vitro under 808 nm laser irradiation; conditions: for light-to-heat conversion efficiency: 20 μM in water; for light-to-heat conversion efficiency / photothermal effect: 808 nm (2.6 W/cm-2) laser 10 minutes; for temperature rise: 40 μM in water, 808 nm (2.6 W/cm-2) laser, within 10 minutes; for photothermal effect: in water
Experimental: A total of 4 groups of samples, 3 mL was taken and added to a cuvette respectively, and the lid was sealed.
The sample No. 2 was 10 μM II-1, and the specific preparation method is 3 mL deionized water plus 15 μL II-1 stock solution (2 mM, dissolved in DMSO);
The sample No. 3 was 20 μM II-1, and the specific preparation method was that 3 mL deionized water was added 30 μL II-1 stock solution (2 mM, dissolved in DMSO);
The sample No. 4 was 40 μM II-1, and the specific preparation method was that 3 mL deionized water was added 60 μL II-1 stock solution (2 mM, dissolved in DMSO).
Each sample was irradiated with an 808 nm laser for 5 minutes, and the temperature data was recorded every 5 seconds with a thermal imager, and the temperature corresponding to the time was plotted in origin, as shown in the left figure of FIG. 8. […] The temperature of sample No. 2 increased from room temperature 30° C. to 54° C., and the temperature was raised by 24° C. The temperature of sample No. 3 increased from room temperature 30° C. to 62° C., and the temperature was raised by 32° C. The temperature of sample No. 4 increased from room temperature 30° C. to 77° C., and the temperature was raised by 47° C.
Using a method similar to Example 8, 10 μM, 20 μM and 40 μM samples of II-16, II-17 and II-18 were prepared, respectively, they were irradiated under an 808 nm (2.6 W/cm-2) laser for 10 minutes. 40 μM II-16 to 18 samples can rise by 40° C., 36° C. and 18° C. respectively within 10 minutes under laser irradiation.
Using a method similar to that in Example 8, three samples of 20 μM of 1-16, II-17 and II-18 in water were irradiated with 808 nm (2.6 W/cm-2) laser for 10 minutes, and the light-to-heat conversion efficiency calculation result thereof were shown in FIG. 10. […] And II-18 not only has poor light-heat effect, but also has low light-heat conversion efficiency, only 12.9%.

[5] = Assembly stability in different media
Experimental: Since II-16 has excellent photothermal properties, its assembly stability in serum-containing medium and in PBS at different temperatures was tested, as shown in FIG. 13.

[6] = 808 nm laser at 2.6 W/cm-2, irradiated and cooled 5 times

SMILES | particle size by DLS [1] | temperature raised by, first irradiation ([2]; 808 nm laser, after 9 minutes of irradiation) [°C] | temperature on laser irradiation again ([2]; after return to room temperature, second irradiation) | DLS particle size peak (nm) [1] [nm] | DLS particle size range (nm) [1] | Morphology [3] | light-to-heat conversion efficiency [4] [%] | temperature rise [4] [°C] | photothermal effect [4] | temperature in repeated irradiations [2, 6] | reduction of absorbance after 5 times of irradiation [2, 6] [%] | absorbance over time ([5]; at 37° C.) | aggregation mode (H aggregation) ([5]; serum-containing medium and PBS at different temperatures)
CC1(C)C(/C=C/C=C/C=C/C=C2\N(CCCCS(=O)(=O)[O-])c3ccc4ccccc4c3C2(C)C)=[N+](CCCCS(=O)(=O)[O-])c2ccc3ccccc3c21.[Na+] [ICG, reference compound] | could not be detected | 15 | the temperature cannot be increased | – | – | – | – | – | – | – | – | – | –
C=CCOc1ccc(C2CC(=CC=C3N(CC)c4ccccc4C3(C)C)C(Cl)=C(C=CC3=C(C#N)C(=C(C#N)C#N)OC3(C)C)C2)cc1 (centres unmarked) [II-12] | – | – | – | 78 | 20-160 nm | nano-sheet | – | – | – | – | – | – | –
C#CCOc1ccc(C2CC(=CC=C3N(CC)c4ccccc4C3(C)C)C(Cl)=C(C=CC3=C(C#N)C(=C(C#N)C#N)OC3(C)C)C2)cc1 (centres unmarked) [II-13] | – | – | – | 74 | 40-110 nm | nano-sheet | – | – | – | – | – | – | –
CCN1C(=CC=C2CCCC(C=CC3=C(C#N)C(=C(C#N)C#N)OC3(C)C)=C2Cl)C(C)(C)c2ccc3ccccc3c21 [II-14] | – | – | – | 78 | 27-134 nm | nano-sheet | – | – | – | – | – | – | –
C#CCOc1ccc(C2CC(=CC=C3N(CC)c4ccccc4C3(C)C)C(NCCn3ccnc3[N+](=O)[O-])=C(C=CC3=C(C#N)C(=C(C#N)C#N)OC3(C)C)C2)cc1 (centres unmarked) [II-15] | – | – | – | 60 | 40-110 nm | nano-sheet | – | – | – | – | – | – | –
CCn1c(=CC=C2CCCC(C=CC3=C(C#N)C(=C(C#N)C#N)OC3(C)C)=C2Cl)c2cccc3cccc1c32 [II-16] | – | – | – | 199 | 163-293 nm | nano-sheet | 56.9 | 40 | excellent photothermal effect | each time the temperature can rise to the same temperature as the first time | 2 | the absorbance will decrease with time | will not change due to changes in external conditions
CCN1C(=CC=C2CCCC(C=CC3=C(C#N)C(=C(C#N)C#N)OC3(C)C)=C2Cl)Sc2ccccc21 [II-17] | – | – | – | 10 | 10-86 nm | nano-sheet | 25 | 36 | excellent photothermal effect | – | 75 | – | –
CCN(CC)c1ccc2c(c1)OC1=C(C=C3CCCC(C=CC4=C(C#N)C(=C(C#N)C#N)OC4(C)C)=C3Cl)CCCC1=C2 [II-18] | – | – | – | 42 | 42-139 nm | nano-sheet | 12.9 | 18 | poor photothermal effect | – | – | – | –
